“And” between values parts separate entries of the source, which are not always exact repeats. Identical values can stand only once.
Tests used:
DOI-induced headtwitch = test: Inhibition of DOI-induced headtwitch (in vivo 5-HT2A antagonism); settings: mice, p.o., 30 min prior to DOI […] i.p.
Description: Inhibition of DOI-induced headtwitch was measured as a functional assay for the in vivo potency of the compound as an antagonist at 5-HT2A receptors. […] Headtwitches were then counted for 5 min, starting 10 min after DOI injection. An ID50 for inhibition of DOI-induced headtwitch was calculated using a four-parameter logistical fit (Excel Fit software, IDBS).

[1] = tested on: GluN2B phosphorylated at tyrosine (Y) 1472; test: GluN2B Y1472 phosphorylation state in nucleus accumbens; format: in vivo; settings: mice, 3 mg/kg p.o., 120 min after dosing
Description: Brains were rapidly removed from the skull. […] Brain tissue was prepared for SDS-PAGE as described above, and protein homogenates (15 μg) were separated on 3-7 % gradient gels, and proteins transferred to nitrocellulose membranes. Portions of each membrane were immunoblotted for GluN2B phosphorylated at […] (rabbit polyclonal) and total GluN2B (mouse monoclonal) (Thermo Fisher Scientific, Rockford, IL).

Dopamine, D4 = molecular target: T1, Dopamine, D4 (Homo sapiens, UniProt P21917); test: NovaScreen broad selectivity panel at 100 nM, Dopamine D4; settings: average of replicate tubes, read-out: % Inhibition of binding at 100 nM concentration, Dopamine D4
T1 sequence (P21917 1-419): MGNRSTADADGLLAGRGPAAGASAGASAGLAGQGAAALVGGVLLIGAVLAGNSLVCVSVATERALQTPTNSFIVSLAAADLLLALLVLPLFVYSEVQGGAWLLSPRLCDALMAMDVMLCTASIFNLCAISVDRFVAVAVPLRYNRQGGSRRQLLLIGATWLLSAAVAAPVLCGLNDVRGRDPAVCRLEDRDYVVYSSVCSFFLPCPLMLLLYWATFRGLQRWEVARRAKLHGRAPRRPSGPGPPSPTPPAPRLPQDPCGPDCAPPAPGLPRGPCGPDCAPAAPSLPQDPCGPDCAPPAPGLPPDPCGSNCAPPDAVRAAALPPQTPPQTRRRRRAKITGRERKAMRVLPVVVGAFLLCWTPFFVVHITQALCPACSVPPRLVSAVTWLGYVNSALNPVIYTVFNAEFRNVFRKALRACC
Description: Binding activity at a variety of receptor targets, including recombinant human serotonin receptors and rat dopamine D2 and human recombinant dopamine D4 receptors, was measured in vitro using standard radioligand displacement methods (NovaScreen/Caliper/Perkin-Elmer, Hanover, MD), to determine affinity. […] D2 receptor binding was measured at rat recombinant receptors expressed in Chinese hamster ovary (CHO) cells and using ^3H-methylspiperone as a radioligand and in rat striatum using ^3H-sulpiride as a radioligand. […] D4 receptor binding was measured at human recombinant receptor s expressed in CHO cells and using ^3 H-methylspiperone as a radioligand. D1 receptor binding at human recombinant receptor was measured in CHO cells using ^3H-SCH23390 as a radioligand. 5-HT2C receptor binding was measured in pig choroid plexus using ^3 H-methylsergide as a radioligand. Binding to alpha adrenergic receptors in the rat frontal cortex (alpha1A) or rat liver (alpha1B) was measured using ^3H-prazosin as a radioligand. Histamine H1 receptor binding was measured in bovine cere- bellum using ^3H-pyrilamine as a radioligand. […] The affinity constant (Ki) for each receptor subtype or inhibitory concentration 50 (IC50) for inhibition in functional assays was calculated.

5-HT2B receptors = 5-HT2B receptors (Homo sapiens, UniProt P41595); test: Binding to 5-HT2B receptors
Chain of 5-HT2B receptors (P41595 whole entry): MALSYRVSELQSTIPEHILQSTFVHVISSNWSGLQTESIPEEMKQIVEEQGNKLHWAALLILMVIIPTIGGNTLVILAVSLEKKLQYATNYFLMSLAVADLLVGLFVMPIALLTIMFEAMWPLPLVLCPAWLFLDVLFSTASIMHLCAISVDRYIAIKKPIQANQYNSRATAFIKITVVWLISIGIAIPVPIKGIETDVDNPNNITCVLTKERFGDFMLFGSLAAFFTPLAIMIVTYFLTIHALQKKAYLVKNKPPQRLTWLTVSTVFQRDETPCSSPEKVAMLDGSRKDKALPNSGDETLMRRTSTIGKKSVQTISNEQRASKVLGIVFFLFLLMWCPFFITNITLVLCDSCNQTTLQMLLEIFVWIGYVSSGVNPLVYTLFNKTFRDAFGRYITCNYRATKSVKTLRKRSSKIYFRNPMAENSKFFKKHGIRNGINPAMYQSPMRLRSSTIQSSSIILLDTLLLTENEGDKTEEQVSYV

[2] = molecular target: T2, human recombinant D2-short receptor (Homo sapiens, UniProt P14416); test: Blockade of dopamine-induced inhibition of forskolin-stimulated cAMP accumulation in CHO cells; format: cell-based; settings: forskolin 10 μM, read-out: IC50, blocking dopamine inhibition of forskolin-stimulated cAMP accumulation
T2 construct: expressed in transfected cells; host or cells: CHO
T2 sequence (P14416 1-414 isoform P14416-2): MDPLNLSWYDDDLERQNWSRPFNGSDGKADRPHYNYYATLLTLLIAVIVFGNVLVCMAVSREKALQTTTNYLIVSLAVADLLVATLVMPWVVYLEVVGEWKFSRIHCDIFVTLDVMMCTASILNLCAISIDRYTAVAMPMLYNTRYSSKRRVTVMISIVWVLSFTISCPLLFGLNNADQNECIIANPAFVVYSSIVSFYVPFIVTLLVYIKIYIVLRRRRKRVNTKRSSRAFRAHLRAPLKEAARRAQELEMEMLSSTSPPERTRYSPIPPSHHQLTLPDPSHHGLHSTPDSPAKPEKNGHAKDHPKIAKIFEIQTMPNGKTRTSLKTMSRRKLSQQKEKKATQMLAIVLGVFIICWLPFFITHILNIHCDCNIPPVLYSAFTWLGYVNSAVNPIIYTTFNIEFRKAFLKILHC

[3] = tested on: D-AMPH-induced hyperactivity; test: Inhibition of D-amphetamine-induced hyperactivity; format: in vivo; settings: rats, p.o.; D-AMPH 1 mg/kg i.p.; distance traveled over 2 h
Description: Male Sprague–Dawley rats (200–250 g, N=4/treatment group) were habituated to Lucite locomotor activity chambers comprising an AccuScan activity monitoring system (AccuScan Instruments, Inc., Columbus, OH) were maintained in a quiet observation room kept under low light conditions. […] The rats were briefly removed from the activity chambers 60 min later to receive an injection of D-amphetamine hydrochloride (D-AMPH; 1 mg/kg in 1 ml/kg, i.p.). The animals were returned to the activity chambers, and locomotor activity was then recorded for 2 h using system software. Activity was quantitated as distance traveled (cm) over 2 h for each group. Inhibitory activity was calculated as the percent of total activity observed at each dose level of each drug versus animals receiving D-AMPH alone. An ID50 for inhibition of D-AMPH-induced hyperactivity was calculated for each compound.

For `CN1CCN2c3c(cccc31)[C@@H]1CN(CCCC(=O)c3ccc(F)cc3)CC[C@@H]12` [ITI-007, 1-(4-fluoro-phenyl)-4-((6bR,10aS)-3-methyl-2,3,6b,9,10,10a-hexahydro-1H,7H-pyrido[3′,4′:4,5]pyrrolo[1,2,3-de]quinoxalin-8-yl)-butan-1-one], the “ID50, inhibition of DOI-induced headtwitch” value (DOI-induced headtwitch) was 0.09 mg/kg, the “GluN2B phosphorylation at Y1472 in nucleus accumbens” value [1] was 180±20 % of control and the inhibition at 0.1 µM (Dopamine, D4) was 64.3%. For the same molecule, the “Binding to 5-HT2B receptors” value (5-HT2B receptors) was “did not significantly bind”, the IC50 [2] was 338 nM and the “ID50, inhibition of D-AMPH-induced hyperactivity” value [3] was 0.95 mg/kg and ~ 1.0 mg/kg.

— article PMC4302236, “Functional profile of a novel modulator of serotonin, dopamine, and glutamate neurotransmission” (Psychopharmacology, 2014)
